The target of one data set is T1, human KDR enzyme (Homo sapiens, UniProt P35968).
T1 construct: The cytoplasmic domain of human KDR enzyme is cloned in the form of a GST fusion; GST; made in house; host or cells: SF21 insect cells (baculovirus, pFastBac)
Put plainly: Phosphorylation of PLCγ substrate by the enzyme KDR in vitro (flashplate technique). Type of data set: biochemical. The note with it: read-out: IC50 (μM) on inhibition of the phosphorylation of PLCγ by KDR. On the procedure:
1. Inhibitory Effects of Compounds on KDR
The inhibitory effect of the compounds is determined in a test of phosphorylation of a substrate by the enzyme KDR in vitro by the flasplate technique (96-well plate, NEN).
The cytoplasmic domain of human KDR enzyme is cloned in the form of a GST fusion into the baculovirus expression vector pFastBac. The protein is expressed in the SF21 cells and purified to about 60% homogeneity.
The kinase activity of KDR is measured in 20 mM MOPS, 10 mM MgCl2, 10 mM MnCl2, 1 mM DTT, 2.5 mM EGTA, 10 mM β glycerophosphate, pH 7.2 in the presence of 10 mM MgCl2, 100 μM Na3VO4, 1 mM NaF. 10 μl of the compound are added to 70 μl of kinase buffer containing 100 ng of KDR enzyme at 4° C. The reaction is initiated by adding 20 μl of solution containing 2 μg of substrate (fragment SH2-SH3 of PLCγ expressed in the form of a GST fusion protein), 2 μCi γ33P[ATP] and 2 μM cold ATP. After incubating for 1 hour at 37° C., the reaction is quenched by adding 1 volume (100 μl) of 200 mM EDTA. The incubation buffer is removed and the wells are washed three times with 300 μl of PBS. The radioactivity is measured in each well using a Top Count NXT instrument (Packard).
Background noise is determined by measuring the radioactivity in wells in quadruplet containing radioactive ATP and the substrate alone.
An activity control is measured in wells in quadruplet containing all the reagents (γ33P-[ATP], KDR and the substrate PLCγ) and in the absence of compound.
The inhibition of the KDR activity with the compound of the invention is expressed as a percentage of inhibition of the control activity determined in the absence of compound.
The compound SU5614 (Calbiochem) (1 μM) is included in each plate as inhibition control.
The IC50 values for the compounds are calculated by plotting the dose-response curves. The IC50 corresponds to the concentration of compound that induces a 50% inhibition of the kinase activity.

A word on the IC50: it is the concentration needed to halve the response being measured. As a reminder, the melting point is the temperature of the solid-liquid transition.

T1 sequence (P35968 786-1356 limits assumed): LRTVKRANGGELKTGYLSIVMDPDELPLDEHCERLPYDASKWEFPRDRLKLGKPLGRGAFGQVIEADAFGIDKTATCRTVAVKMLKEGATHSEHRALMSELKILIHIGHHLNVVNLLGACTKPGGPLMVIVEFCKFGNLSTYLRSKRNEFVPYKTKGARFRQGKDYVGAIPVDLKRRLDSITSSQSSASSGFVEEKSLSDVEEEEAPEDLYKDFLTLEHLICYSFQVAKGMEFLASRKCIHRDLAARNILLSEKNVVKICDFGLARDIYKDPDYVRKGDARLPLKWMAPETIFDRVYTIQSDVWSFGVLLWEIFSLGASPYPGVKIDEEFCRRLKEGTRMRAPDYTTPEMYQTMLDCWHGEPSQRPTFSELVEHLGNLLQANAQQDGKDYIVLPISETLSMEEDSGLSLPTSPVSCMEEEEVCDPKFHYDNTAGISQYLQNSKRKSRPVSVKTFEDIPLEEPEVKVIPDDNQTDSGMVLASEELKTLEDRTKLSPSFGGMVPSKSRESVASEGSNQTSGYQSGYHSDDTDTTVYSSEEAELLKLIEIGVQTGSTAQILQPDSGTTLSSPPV

In the case of “2-(1H-Indazol-3-yl)-1H-benzimidazole-5-carboxylic acid N-(2-furfuryl)amide [Example 12]”, the IC50 at human KDR enzyme is 0.16 µM.
Still for that read-out and setting: as for “2-(1H-Indazol-3-yl)-1H-benzimidazole-5-carboxylic acid N-(N′-methyl-piperazino)amide [Example 8]”, the figure is 0.67 µM.
As to “2-(1H-Indazol-3-yl)-1H-benzimidazole-5-carboxylic acid N-morpholinoamide [Example 7]”, on human KDR enzyme, the IC50 is 0.72 µM.
In the case of “2-(1H-Indazol-3-yl)-1H-benzimidazole-5-carboxylic acid N-pyrrolidinoamide [Example 9]”, on human KDR enzyme, the IC50 was found to be 0.35 µM.
In turn, `Cc1cc(-c2nc3ccccc3[nH]2)n[nH]1` [Example 236, 2-(5-Methyl-1H-pyrazol-3-yl)-1H-benzoimidazole] returned a melting point of 322 to 324 °C.
Take `CCOc1cc(-c2nc3ccccc3[nH]2)n[nH]1` [Example 237, 2-(5-Ethoxy-1H-pyrazol-3-yl)-1H-benzoimidazole]: the melting point is 217 to 219.5 °C.
`CSc1cc(-c2nc3ccccc3[nH]2)no1` [Example 238, 2-(5-Methylsulfanyl-isoxazol-3-yl)-1H-benzoimidazole]: the melting point was in the range of 179 to 181 °C.
The same measure, in the same setting: as for `CSc1cc(-c2nc3ccccc3[nH]2)n[nH]1` [Example 240, (Benzoimidazol-2-yl)-5-methylthio-3-pyrazole], the figure is 242 °C; as for `COc1cc2nc(-c3n[nH]cc3NC(=O)C3CC3)[nH]c2cc1Cl` [Example 258(a), Cyclopropanecarboxylic acid [3-(6-chloro-5-methoxy-1H-benzoimidazol-2-yl)-1H-pyrazol-4-yl]-amide], 225 to 226 °C.

The values above are taken from patent US6897208B2, “Benzimidazoles” (Aventis Pharmaceuticals Inc., priority 2001, dated 2005).
